Common to all, as to format: cell-based
The test system of series [1] is normal cell lines hTERT-RPE, MCF 10A, and 184B5. Put plainly: G2/M-phase cells by PI flow cytometry, normal cell lines. The conditions noted are these: 3 normal cell lines, 24 hours, FIG. 10. As to the method:
(§1) (A) Two cancer cell lines SKOV-3 and OVCAR-3 and three normal cell lines hTERT-RPE, MCF 10A, and 184B5 were treated with SPL-A at concentrations shown in the abscissa of FIG. 10A for 24 hours, then stained with propidium iodide (PI), and analyzed by flow cytometry.
(§2) The same two cancer cell lines and three normal cell lines as in (A) were treated with each of paclitaxel, vincristine, and vinblastine acting on microtubule formation, S-trityl-L-cysteine (STLC) and SB743921 acting on proteins involved in mitosis, an Aurora kinase inhibitor VX680, and a polo-like kinase (PLK) inhibitor BI2536 at concentrations shown in the abscissa of FIG. 10B for 24 hours, then stained with propidium iodide (PI), and analyzed by flow cytometry.

For series [2], the system named is cancer cell lines SKOV-3 and OVCAR-3. Put plainly: G2/M-phase cells by PI flow cytometry, cancer cell lines. Particulars: two cancer cell lines, 24 hours, FIG. 10. As to the method: as §1, §2
The subject of another series is mouse lymphoma cell line. In words: Cell death of lymphoma (survival rate, WST-1). The conditions noted are these: 72 h, IC50=50% survival rate, three days. How it is done: The synthesized compounds were analyzed for their activity against cell death induction using a mouse lymphoma cell line (see Non Patent Literature 12), which was a cell line derived from thymic lymphoma developed in p53KO mouse.
The number of the lymphoma cells was adjusted to 1.2×10^5 cells/ml. The cells were inoculated at a concentration of 50 μl/well to a 96-well culture dish. A medium containing each RT compound as the novel compound of the present invention at twice the concentration of 50 μl was further added thereto (final concentration: 0.021 to 13.3 μg/ml). Three days after cultivation, the survival rate was calculated using WST-1 reagent (manufactured by F. Hoffmann-La Roche, Ltd.).

For series [3], the system named is SKOV-3 cells expressing EGFP-α-tubulin. In words: Mitotic arrest of synchronized EGFP-α-tubulin-expressing SKOV-3 cells, time-lapse single-cell analysis. How it is done:
The EGFP-α-tubulin-expressing cells used in the assay will be described. In order to observe mitosis under a fluorescence microscope, cells expressing EGFP-α-tubulin (fusion protein of a fluorescent protein, EGFP, and α-tubulin) were prepared. A system observable under a fluorescence microscope without cell fixation was prepared.
Ovary cancer cells SKOV-3 were cultured in an RPMI1640 medium supplemented with 5% fetal bovine serum. Stable cells expressing EGFP-α-tubulin were transduced by lentiviral transduction using pLenti4/V5-DEST vectors (Registered Trade Mark) (manufactured by Invitrogen Corp.) and selected by the FACS sorting of infected cells using Zeocin (Registered Trade Mark) and subsequent FACSAria (Registered Trade Mark) (Becton, Dickinson and Company).
The compounds NPD2448, NPD2568, NPD3574, NPD4089, and C7—O-propylated NPD3574 were each added at varying concentrations to the culture medium of SKOV-3 cells expressing EGFP-α-tubulin and analyzed for their effect on cell division.
The SKOV-3 cells expressing EGFP-α-tubulin were synchronized by thymidine block to analyze the effect on cell division of each compound. As shown in the upper part of FIG. 2, each compound was added to the culture medium after the 1st thymidine block. After synchronization by the second thymidine block, images were taken every 2 minutes for 3 days using Leica AF6000 and ×20/0.5 Plan Fluotar objective lens in a phenol red-free RPMI1640 medium supplemented with 5% fetal bovine serum. These time-lapse images were analyzed using ImageJ 1.42a software, and the time of mitotic arrest was determined by visual judgment. The duration of mitosis was manually determined from the image sequences of at least 50 cells.
The mitotic arrest (EC50=50% arrest rate) was tested by the microscopic analysis of individual single cells.
EGFP-α-tubulin-expressing SKOV-3 cells synchronized by double thymidine block in the same way as in Example 2 were treated with each synthesized compound and subjected to time-lapse photography for 3 days. At least 50 cells were observed. The time of arrest of each cell was calculated, and EC50 was determined therefrom.
EGFP-α-tubulin-expressing SKOV-3 cells supplemented with each of SPL-A and SPL-B at varying concentrations were synchronized by double thymidine block in the same way as in Example 2. Analysis based on single cells was conducted by time-lapse photography. The duration of mitosis was measured from the image sequences of at least 50 cells.

Series [4] has as its system OVCAR-3 cells expressing EGFP-α-tubulin. In words: Cell fate determination by time-lapse photography, OVCAR-3. Particulars: 13.3 μg/ml SPL-A or 2.7 μg/ml SPL-B. As to the method:
(§3) The cells used were SKOV-3 cells and OVCAR-3 cells expressing EGFP-α-tubulin.
(§4) The OVCAR-3 cells expressing EGFP-α-tubulin were obtained using the same procedure as that for the SKOV-3 cells expressing EGFP-α-tubulin. The cells supplemented with each of SPL-A and SPL-B were synchronized by double thymidine block in the same way as in Example 2. Images were obtained by time-lapse photography and analyzed. The cells of each line were treated with 13.3 μg/ml SPL-A or 2.7 μg/ml SPL-B. The cell fate was manually determined from the image sequence of at least 50 cells with the time point of nuclear envelope breakdown defined as 0.

For the next series, the system named is SKOV-3 cells. Put plainly: Abnormal spindle morphology by immunostaining, SKOV-3. Particulars: 24 hours. As to the method: (§5) SPL-A was added at each concentration to the SKOV-3 or OVCAR-3 cells. Twenty four hours after incubation, the cells were fixed and immunostained using antibodies against cell division-related substances such as α-tubulin described below. The percentage of spindle morphology was determined from at least 50 cells. The data was indicated by a mean of three independent experiments and SD.
(§6) The immunostaining was carried out by the following method: the cells were fixed in 3.7% PFA, methanol, or 10% TCA on a chamber slide, then permeabilized with 0.2% Triton-X100 in PBS, and incubated with primary antibodies. A monoclonal antibody (DM1A) against α-tubulin and monoclonal antibodies (DQ19 and GTU-88) against γ-tubulin were obtained from Sigma-Aldrich Corp. An anti-centrin 2 antibody (sc-27793) was purchased from Santa Cruz Biotechnology, Inc. Fluorescent labelled goat anti-mouse IgG (Cappel) and Cy3 labelled goat anti-rabbit IgG (Millipore) antibodies were used as secondary antibodies. DNA was detected using 4,6-diamidino-2-phenylindole (DAPI). Images were obtained using Leica DM6000B microscope equipped with ×100/1.40-0.70 PlanApo objective lens and Z-projections.
(§7) FIGS. 5A and B show the results of analyzing spindle morphology. The percentage of spindle morphology was indicated by the percentage (%) of normal, multipolar, disorganized, or monopolar spindles to the number of mitotic cells. […]

Series [5] relates to SKOV-3 cells expressing EGFP-α-tubulin. Put plainly: Cell fate determination by time-lapse photography, SKOV-3. The conditions noted are these: 13.3 μg/ml SPL-A or 2.7 μg/ml SPL-B. As to the method:
as §3, §4

The subject of a further series is OVCAR-3 cells. Put plainly: Abnormal spindle morphology by immunostaining, OVCAR-3. Particulars: 24 hours. As to the method:
as §5, §6, §7

Values after ≈ are worked out from the molar mass of the structure shown.

For `O=c1cc(-c2cc3ccccc3oc2=O)c2ccc(O)c(CN3CCC(CCO)CC3)c2o1` [RT-011], the “inhibitory effect on cell division” value in series [1] was “no inhibitory effect on cell division”. Further, the “percentage of G2/M-phase cells / cell division” value in series [2] is “increased the percentage of G2/M-phase cells in a concentration-dependent manner”. In the series with mouse lymphoma cell line, this compound registered a half-maximal inhibitory concentration (IC50) of 2.15 µg/mL (≈ 4.8 µM). Further, the “concentration at which mitotic arrest was induced” value in series [3] (Example 5, FIG. 3, final concentrations) was 2.667 µg/mL. The EC50 in series [3] (Homo sapiens, SK-OV-3, 72 h, mitotic arrest, EC50=50% arrest rate, double thymidine block, time-lapse 3 days, at least 50 cells, read-out: SKOV3 EC50) was found to be 0.79 µg/mL (≈ 1.77 µM). Moreover, in series [3] (summary of Table 2 (SKOV-3 mitotic arrest and lymphoma cell death)), the “inhibitory effects on cell growth” value is listed as “remarkable inhibitory effects on cell growth”. For the same compound, the “cell fate of most cells” value was “mitotic death” in series [4] and “mitotic slippage” in series [5]. In addition, the “percentage of cells with multipolar spindles” value was 53.3% in the series on SKOV-3 cells (SKOV-3, 1.25 μg/ml) and 44.0% in the series with OVCAR-3 cells (OVCAR-3, 1.25 μg/ml). In addition, the “percentage of cells with disorganized spindles” value with SKOV-3 cells (SKOV-3, 5 μg/ml) was determined as 56.7%; in the series on OVCAR-3 cells (OVCAR-3, 2.5 μg/ml), 57.3%.

Source of the values: US20160052918A1, “SMALL COMPOUNDS TARGETING TACC3” (JAPANESE FOUNDATION FOR CANCER RESEARCH, priority 2012, published 2016).
